Measurements published in US20100184677A1, “USE OF THE HUMAN PANCREATIC POLYPEPTIDE AS A THERAPEUTIC AGENT” (priority 2007, published 2010).

Tests used:
HepG2-2.2.15 cells = assay: Cell viability (dye uptake assay) in HepG2-2.2.15 cells; conditions: HepG2-2.2.15 cells; test peptide 10 micrograms per ml; dye uptake assay (% cell control)
MRC-5 cells = conditions: human, 6 days
Pseudomonas aeruginosa = format: cell-based; conditions: 5 micrograms per ml
Streptococcus pneumoniae = format: cell-based; conditions: 5 micrograms per ml
MRSA = conditions: 5 micrograms per ml
in vitro [1] = conditions: human
in vitro [2] = conditions: human, MRC-5 cells (embryonal lung fibroblasts)
[3] = Cell viability (dye uptake assay) in HepG2-2.2.15 cells; conditions: human

## Nc1ccn([C@@H]2CS[C@H](CO)O2)c(=O)n1 [3TC, Lamivudine, reference compound]
HepG2-2.2.15 cells
  % Cell Viability: 95.8%

## Nc1nc(O)c2ncn(COC(CO)CO)c2n1 [Ganciclovir]
MRC-5 cells
  % Cell Viability: 100%

## CC[C@H](C)[C@H](NC(=O)[C@H](Cc1ccc(O)cc1)NC(=O)[C@H](CCCNC(=N)N)NC(=O)[C@H](CCCNC(=N)N)NC(=O)[C@H](CC(C)C)NC(=O)[C@H](CC(=O)O)NC(=O)[C@H](C)NC(=O)[C@H](C)NC(=O)[C@H](Cc1ccc(O)cc1)NC(=O)[C@H](CCC(N)=O)NC(=O)[C@H](C)NC(=O)[C@H](CCSC)NC(=O)[C@H](CCC(N)=O)NC(=O)[C@H](CCC(=O)O)NC(=O)[C@@H]1CCCN1C(=O)[C@@H](NC(=O)[C@H](C)NC(=O)[C@H](CC(N)=O)NC(=O)[C@H](CC(=O)O)NC(=O)CNC(=O)[C@@H]1CCCN1C(=O)[C@H](Cc1ccc(O)cc1)NC(=O)[C@@H](NC(=O)[C@@H]1CCCN1C(=O)[C@H](CCC(=O)O)NC(=O)[C@H](CC(C)C)NC(=O)[C@@H]1CCCN1C(=O)[C@H](C)N)C(C)C)[C@@H](C)O)C(=O)N[C@@H](CC(N)=O)C(=O)N[C@@H](CCSC)C(=O)N[C@@H](CC(C)C)C(=O)N[C@H](C(=O)N[C@@H](CCCNC(=N)N)C(=O)N1CCC[C@H]1C(=O)N[C@@H](CCCNC(=N)N)C(=O)N[C@@H](Cc1ccc(O)cc1)C(N)=O)[C@@H](C)O [Pancreatic polypeptide]
Pseudomonas aeruginosa
  % inhibition: 0.0%
Streptococcus pneumoniae
  % inhibition: 0.0%
MRSA
  % inhibition: 0.0%
In vitro [1]
  viability at 10 micrograms per ml: 90.2%
In vitro [2]
  viability at 144 h: 100%
[3]
  viability at 144 h, 10 micrograms per ml: 92.5%
